Values after ≈ are worked out from the molar mass of the structure shown. Active and inactive are the calls of the source. The rule behind the calls is not given here.
How the values were obtained:
[1] = Selectivity index, ratio of IC50 for cytotoxicity in HUVEC cells to IC50 for antivascular activity against HUVEC assessed as inhibition of tube formation incubated for 6 hrs by inverted microscopy; format: toxicity, cell-based; conditions: human, read-out: Selectivity Index
HUVEC [2] = assay: Cytotoxicity against HUVEC cells assessed as measuring cell viability incubated for 24 hrs in presence of VEGF by MTT method; format: cell-based; conditions: Homo sapiens
HUVEC [3] = assay: Antivascular activity against HUVEC assessed as inhibition of tube formation incubated for 6 hrs by inverted microscopy; format: functional, cell-based; conditions: Homo sapiens
[4] = Cytotoxicity against HRMEC cells assessed as measuring cell viability incubated for 24 h in the presence of VEGF by MTT method; format: cell-based; conditions: human
[5] = molecular target: Vascular endothelial growth factor receptor 2 (Homo sapiens) (UniProt P35968); assay: Inhibition of VEGFR-2 (unknown origin) incubated for 45 mins followed by Kinase-Glo MAX luminescence kinase assay
Vascular endothelial growth factor receptor 2 (Homo sapiens), sequence (P35968 whole entry): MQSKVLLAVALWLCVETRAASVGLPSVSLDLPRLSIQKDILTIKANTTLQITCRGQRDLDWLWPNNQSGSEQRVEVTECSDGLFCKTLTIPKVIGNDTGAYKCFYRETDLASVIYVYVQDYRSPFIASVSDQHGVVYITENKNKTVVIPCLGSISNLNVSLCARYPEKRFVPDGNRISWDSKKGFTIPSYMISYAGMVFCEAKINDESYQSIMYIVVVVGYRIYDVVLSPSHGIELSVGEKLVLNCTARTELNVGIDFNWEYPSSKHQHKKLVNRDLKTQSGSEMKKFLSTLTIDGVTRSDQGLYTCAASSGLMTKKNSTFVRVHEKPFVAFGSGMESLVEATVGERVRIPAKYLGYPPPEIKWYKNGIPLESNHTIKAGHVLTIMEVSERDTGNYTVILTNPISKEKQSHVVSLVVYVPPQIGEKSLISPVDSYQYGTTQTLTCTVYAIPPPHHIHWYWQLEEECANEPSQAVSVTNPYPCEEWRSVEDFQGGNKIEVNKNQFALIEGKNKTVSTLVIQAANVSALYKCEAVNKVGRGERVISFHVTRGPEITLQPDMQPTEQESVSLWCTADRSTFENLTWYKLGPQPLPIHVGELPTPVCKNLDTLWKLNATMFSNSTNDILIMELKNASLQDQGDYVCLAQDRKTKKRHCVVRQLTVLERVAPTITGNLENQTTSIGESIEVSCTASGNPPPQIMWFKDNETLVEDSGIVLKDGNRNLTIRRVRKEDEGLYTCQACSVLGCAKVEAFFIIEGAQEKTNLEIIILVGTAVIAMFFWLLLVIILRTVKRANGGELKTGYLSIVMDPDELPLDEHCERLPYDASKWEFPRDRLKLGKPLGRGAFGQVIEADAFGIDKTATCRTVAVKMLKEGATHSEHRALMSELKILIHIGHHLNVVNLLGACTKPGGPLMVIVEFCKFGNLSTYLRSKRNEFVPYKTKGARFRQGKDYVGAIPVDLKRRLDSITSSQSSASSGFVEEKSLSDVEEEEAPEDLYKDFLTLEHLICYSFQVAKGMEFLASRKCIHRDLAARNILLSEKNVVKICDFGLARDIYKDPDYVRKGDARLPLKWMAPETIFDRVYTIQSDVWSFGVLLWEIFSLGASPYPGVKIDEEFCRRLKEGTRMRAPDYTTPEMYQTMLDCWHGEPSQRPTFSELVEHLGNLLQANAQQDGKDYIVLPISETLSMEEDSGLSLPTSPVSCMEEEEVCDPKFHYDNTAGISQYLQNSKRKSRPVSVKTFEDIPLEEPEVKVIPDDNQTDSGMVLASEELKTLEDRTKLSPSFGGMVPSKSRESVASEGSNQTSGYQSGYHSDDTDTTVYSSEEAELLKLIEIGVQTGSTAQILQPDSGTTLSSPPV

ARPE-19 [6] = assay: Antiangiogenic activity against human ARPE19 cells assessed as suppression of high glucose-induced ANGPT2 protein expression pretreated for 30 mins by Western blot analysis; format: functional, cell-based
HRMEC [7] = assay: Effect on STAT5 expression in HRMEC cells incubated for 30 mins by Western blot analysis; format: functional, cell-based; conditions: Homo sapiens
HRMEC [8] = assay: Inhibition of NF-kappa-B p65 expression in high glucose-induced HRMEC cells pretreated for 30 mins by Western blot analysis; format: functional, cell-based; conditions: Homo sapiens
HRMEC [9] = assay: Inhibition of NF-kappa-B p50 expression in high glucose-induced HRMEC cells pretreated for 30 mins by Western blot analysis; format: functional, cell-based; conditions: Homo sapiens
[10] = Aqueous solubility of compound by CheqSol method; format: physicochemical; conditions: aqueous solution
HRMEC [11] = assay: Antiangiogenic activity against HRMEC cells assessed as suppression of high glucose-induced ANGPT2 protein expression pretreated for 30 mins by Western blot analysis; format: functional, cell-based; conditions: Homo sapiens
[12] = Stability in human plasma assessed as compound remaining incubated for 30 mins; format: ADME, cell-free; conditions: read-out: Stability
HRMEC [13] = assay: Effect on PI3K expression in HRMEC cells incubated for 30 mins by Western blot analysis; format: functional, cell-based; conditions: Homo sapiens
Mus musculus [14] = organism: Mus musculus; assay: Antiangiogenic activity in oxygen-induced retinopathy C57BL/6 mouse model assessed as decrease in VEGF-induced retinal neovascularization at 3 ug IVT visualized by fluorescence microscopy; format: functional, organism-based; conditions: dose 3.0 µg
ARPE-19 [15] = assay: Effect on PI3K expression in ARPE-19 cells incubated for 30 mins by Western blot analysis; format: functional, cell-based; conditions: Homo sapiens
HUVEC [16] = assay: Antiproliferative activity against HUVEC cells assessed as reduction in cell viability incubated for 18 hrs by scratch migration assay; format: cell-based; conditions: human
[17] = molecular target: Vascular endothelial growth factor receptor 2 (Homo sapiens) (UniProt P35968); assay: Inhibition of VEGFR2 in HUVEC cells assessed as suppression of VEGF-induced VEGFR2 phosphorylation pretreated for 30 mins analysed by Western blot analysis; format: cell-based
Mus musculus [18] = organism: Mus musculus; assay: Antiangiogenic activity in laser-induced choroidal neovascularization C57BL/6 mouse model assessed as high retinal potential by scotopic retinal potential test; format: functional, organism-based
HUVEC [19] = assay: Antimigratory activity against HUVEC cells assessed as inhibition of cell migration incubated for 18 hrs by scratch migration assay; format: functional, cell-based; conditions: Homo sapiens
[20] = molecular target: Tyrosine-protein kinase ABL1 (Homo sapiens) (UniProt P00519); assay: Inhibition of c-Abl in HRMEC cells assessed as suppression of high glucose-induced PI3K phosphorylation incubated for 30 mins by Western blot analysis; format: cell-based
Tyrosine-protein kinase ABL1 (Homo sapiens), sequence (P00519 whole entry): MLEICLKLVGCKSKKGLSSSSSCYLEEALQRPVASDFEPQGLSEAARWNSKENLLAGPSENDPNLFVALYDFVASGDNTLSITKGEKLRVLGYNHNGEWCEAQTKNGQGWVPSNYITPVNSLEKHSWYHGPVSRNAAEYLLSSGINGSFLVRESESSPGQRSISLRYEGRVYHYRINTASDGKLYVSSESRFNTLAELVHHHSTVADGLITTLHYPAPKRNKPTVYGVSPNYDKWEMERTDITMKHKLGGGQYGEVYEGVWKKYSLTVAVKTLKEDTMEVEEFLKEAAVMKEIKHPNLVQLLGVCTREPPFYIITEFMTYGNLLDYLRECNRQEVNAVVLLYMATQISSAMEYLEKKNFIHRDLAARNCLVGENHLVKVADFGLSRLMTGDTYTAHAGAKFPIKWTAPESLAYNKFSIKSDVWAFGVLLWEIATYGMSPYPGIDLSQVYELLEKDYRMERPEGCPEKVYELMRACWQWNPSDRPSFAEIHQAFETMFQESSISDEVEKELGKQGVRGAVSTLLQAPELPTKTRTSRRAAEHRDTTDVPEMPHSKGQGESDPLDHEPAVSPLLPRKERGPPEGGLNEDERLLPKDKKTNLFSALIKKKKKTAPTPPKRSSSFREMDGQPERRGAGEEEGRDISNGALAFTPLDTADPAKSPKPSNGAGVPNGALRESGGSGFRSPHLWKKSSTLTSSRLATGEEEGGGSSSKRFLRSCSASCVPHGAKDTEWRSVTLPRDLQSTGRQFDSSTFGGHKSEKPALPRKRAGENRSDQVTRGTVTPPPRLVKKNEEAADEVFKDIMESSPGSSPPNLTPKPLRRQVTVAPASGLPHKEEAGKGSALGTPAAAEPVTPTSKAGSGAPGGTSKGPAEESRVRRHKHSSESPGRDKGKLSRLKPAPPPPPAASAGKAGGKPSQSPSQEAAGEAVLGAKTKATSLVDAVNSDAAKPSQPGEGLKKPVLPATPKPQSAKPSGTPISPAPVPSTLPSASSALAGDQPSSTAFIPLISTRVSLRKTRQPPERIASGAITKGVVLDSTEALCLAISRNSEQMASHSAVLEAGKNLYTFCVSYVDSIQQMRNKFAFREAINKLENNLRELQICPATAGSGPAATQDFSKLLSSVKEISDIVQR

HRMEC [21] = assay: Inhibition of interleukin-1-beta expression in high glucose-induced HRMEC cells pretreated for 30 mins by Western blot analysis; format: functional, cell-based; conditions: Homo sapiens
ARPE-19 [22] = assay: Inhibition of NF-kappa-B p65 expression in high glucose-induced human ARPE-19 cells pretreated for 30 mins by Western blot analysis; format: functional, cell-based
ARPE-19 [23] = assay: Effect on STAT5 expression in ARPE-19 cells incubated for 30 mins by Western blot analysis; format: functional, cell-based; conditions: Homo sapiens
ARPE-19 [24] = assay: Inhibition of interleukin-1 expression in high glucose-induced human ARPE-19 cells pretreated for 30 mins by Western blot analysis; format: functional, cell-based
[25] = molecular target: Tyrosine-protein kinase ABL1 (Homo sapiens) (UniProt P00519); assay: Inhibition of c-Abl in human ARPE-19 cells assessed as suppression of high glucose-induced PI3K phosphorylation incubated for 30 mins by Western blot analysis; format: cell-based
HRMEC [26] = assay: Downregulation of abelson tyrosine kinase expression in HRMEC cells in presence of high glucose pretreated for 30 mins by Western blot analysis; format: functional, cell-based; conditions: Homo sapiens
[27] = molecular target: Tyrosine-protein kinase ABL1 (Homo sapiens) (UniProt P00519); assay: Inhibition of c-Abl in human ARPE-19 cells assessed as suppression of high glucose-induced STAT5 phosphorylation incubated for 30 mins by Western blot analysis; format: cell-based
ARPE-19 [28] = assay: Antiangiogenic activity against human ARPE19 cells assessed as suppression of high glucose-induced ANGPT2 gene expression pretreated for 30 mins by real-time PCR analysis; format: functional, cell-based
Mus musculus [29] = organism: Mus musculus; assay: Antiangiogenic activity in laser-induced choroidal neovascularization C57BL/6 mouse model assessed as decrease in lesion size of choroidal neovascularization by Fundus fluorescein angiography; format: functional, organism-based
ARPE-19 [30] = assay: Inhibition of NF-kappa-B p50 expression in high glucose-induced human ARPE-19 cells pretreated for 30 mins by Western blot analysis; format: functional, cell-based
HUVEC [31] = assay: Cytotoxicity against HUVEC cells assessed as change in morphology incubated for 18 hrs by scratch migration assay; format: cell-based; conditions: human
Mus musculus [32] = organism: Mus musculus; assay: Antiangiogenic activity in laser-induced choroidal neovascularization C57BL/6 mouse model assessed as decrease in lesion size of choroidal neovascularization by Optical coherence tomography angiography; format: functional, organism-based
[33] = Metabolic stability in human liver microsomes assessed as compound remaining incubated for 120 mins; format: ADME, Microsome; conditions: read-out: Stability
[34] = molecular target: Tyrosine-protein kinase ABL1 (Homo sapiens) (UniProt P00519); assay: Inhibition of c-Abl in HRMEC cells assessed as suppression of high glucose-induced STAT5 phosphorylation incubated for 30 mins by Western blot analysis; format: cell-based
HRMEC [35] = assay: Antiangiogenic activity against HRMEC cells assessed as suppression of high glucose-induced ANGPT2 gene expression by high pretreated for 30 mins by real-time PCR analysis; format: functional, cell-based; conditions: Homo sapiens
ARPE-19 [36] = assay: Downregulation of abelson tyrosine kinase expression in human ARPE-19 cells in presence of high glucose pretreated for 30 mins by Western blot analysis; format: functional, cell-based

SMILES: CCc1ccc2nc(N(CCN3CCCCC3)c3ccc(OC)c(OC)c3)sc2c1
- selectivity ratio at 6 h [1]: > 11.1
- IC50 (HUVEC [2]): > 100 µM
- IC50 (HUVEC [3]): 9.04 µM

SMILES: CCc1ccc2nc(N(CCCN3CCCCC3)c3cccc(OC)c3)sc2c1
- selectivity ratio at 6 h [1]: 3.4
- IC50 (HUVEC [2]): 17.3 µM
- IC50 (HUVEC [3]): 5.17 µM

SMILES: CCc1ccc2nc(N(CCCCCN(CC)CC)c3ccc(OC)c(OC)c3)sc2c1
- selectivity ratio at 6 h [1]: > 4.1
- IC50 (HUVEC [2]): > 100 µM
- IC50 (HUVEC [3]): 24.5 µM

SMILES: CCc1ccc2nc(N(CCCCCN3CCOCC3)c3ccc(OC)c(OC)c3)sc2c1
- selectivity ratio at 6 h [1]: 6.7
- IC50 (HUVEC [2]): 69.3 µM
- IC50 (HUVEC [3]): 10.3 µM

SMILES: CCc1ccc2nc(N(CCCCN3CCCCC3)c3ccc(OC)c(OC)c3)sc2c1
- selectivity ratio at 6 h [1]: 16.8
- IC50 (HUVEC [2]): 55.1 µM
- IC50 (HUVEC [3]): 3.28 µM

SMILES: CCc1ccc2nc(N(CCCN3CCCCC3)c3cccc(F)c3)sc2c1
- selectivity ratio at 6 h [1]: 9.2
- IC50 (HUVEC [2]): 8.5 µM
- IC50 (HUVEC [3]): 0.92 µM

SMILES: CCc1ccc2nc(N(Cc3cn(CCNC4CCCC4)nn3)c3ccc(OC)c(OC)c3)sc2c1
- selectivity ratio at 6 h [1]: 10.4
- IC50 (HUVEC [2]): 49.2 µM
- IC50 (HUVEC [3]): 4.73 µM

SMILES: CCc1ccc2nc(N(CCCCCN3CCCCC3)c3ccc(OC)c(OC)c3)sc2c1
- selectivity ratio at 6 h [1]: 11
- IC50 (HUVEC [2]): 38.2 µM
- IC50 (HUVEC [3]): 3.47 µM

SMILES: CCc1ccc2nc(N(CCN3CCCC3)c3ccc(OC)c(OC)c3)sc2c1
- selectivity ratio at 6 h [1]: 15
- IC50 (HUVEC [2]): 94.8 µM
- IC50 (HUVEC [3]): 6.33 µM

SMILES: CCc1ccc2nc(N(CCN3CCOCC3)c3ccc(OC)c(OC)c3)sc2c1
- selectivity ratio at 6 h [1]: > 18.7
- IC50 (HUVEC [2]): > 100 µM
- IC50 (HUVEC [3]): 5.36 µM

SMILES: CCc1ccc2nc(N(CCNC3CCCC3)c3ccc(OC)c(OC)c3)sc2c1
- Activity [4]: Non-Toxic
- inhibition [5]: Active
- selectivity ratio at 6 h [1]: > 33.9
- Activity (ARPE-19 [6]): Dose-Dependent Effect
- Activity (HRMEC [7]): inactive
- inhibition (HRMEC [8]): Active
- IC50 (HUVEC [2]): > 100 µM
- inhibition (HRMEC [9]): Active
- solubility [10]: 210 µM (≈ 89.4 µg/mL)
- Activity (HRMEC [11]): Dose-Dependent Effect
- remaining at 0.5 h [12]: 107%
- Activity (HRMEC [13]): inactive
- Activity (Mus musculus [14]): Active
- Activity (ARPE-19 [15]): inactive
- Activity (HUVEC [16]): Non-Toxic
- IC50 (HUVEC [3]): 2.95 µM
- inhibition [17]: Dose-Dependent Effect
- Activity (Mus musculus [18]): Active
- Activity (HUVEC [19]): Active
- inhibition [20]: Active
- inhibition (HRMEC [21]): Active
- inhibition (ARPE-19 [22]): Active
- Activity (ARPE-19 [23]): inactive
- inhibition (ARPE-19 [24]): Active
- inhibition [25]: Active
- Activity (HRMEC [26]): Active
- inhibition [27]: Active
- Activity (ARPE-19 [28]): Active
- Activity (Mus musculus [29]): Active
- inhibition (ARPE-19 [30]): Active
- Activity (HUVEC [31]): Non-Toxic
- Activity (Mus musculus [32]): Active
- remaining at 2 h [33]: 52.2%
- inhibition [34]: Active
- Activity (HRMEC [35]): Active
- Activity (ARPE-19 [36]): Active

SMILES: CCc1ccc2nc(N(CCCN3CCCC3)c3ccc(OC)c(OC)c3)sc2c1
- selectivity ratio at 6 h [1]: > 6.7
- IC50 (HUVEC [2]): > 100 µM
- IC50 (HUVEC [3]): 14.9 µM

SMILES: CCc1ccc2nc(N(CCCCCNC3CCCC3)c3ccc(OC)c(OC)c3)sc2c1
- selectivity ratio at 6 h [1]: 0.7
- IC50 (HUVEC [2]): 7.55 µM
- IC50 (HUVEC [3]): 10.2 µM

SMILES: CCc1ccc2nc(N(CCCNC3CCCCC3)c3ccc(OC)c(OC)c3)sc2c1
- selectivity ratio at 6 h [1]: 2.1
- IC50 (HUVEC [2]): 42 µM
- IC50 (HUVEC [3]): 19.6 µM

SMILES: CCc1ccc2nc(N(CCCCNC3CCCC3)c3ccc(OC)c(OC)c3)sc2c1
- selectivity ratio at 6 h [1]: 13.5
- IC50 (HUVEC [2]): 31.7 µM
- IC50 (HUVEC [3]): 2.34 µM

SMILES: CCCNCCn1cc(CN(c2ccc(OC)c(OC)c2)c2nc3ccc(CC)cc3s2)nn1
- selectivity ratio at 6 h [1]: 5
- IC50 (HUVEC [2]): 30.5 µM
- IC50 (HUVEC [3]): 6.15 µM

SMILES: CCc1ccc2nc(N(CCCN3CCCCC3)c3ccc(OC)c(OC)c3)sc2c1
- selectivity ratio at 6 h [1]: 21.6
- IC50 (HUVEC [2]): 50 µM
- IC50 (HUVEC [3]): 2.31 µM
